Laboratory results as given in patent publication EP2970215B1, “PYRROLIDINE DERIVATIVES, PHARMACEUTICAL COMPOSITIONS CONTAINING THEM, AND THEIR USE IN THERAPY” (AbbVie Deutschland GmbH & Co. KG, priority 2013, dated 2014).

Target: T1, human GlyT1c transporter (Homo sapiens, UniProt P48067)
T1 construct: expressed in transfected cells; host or cells: CHO cells (recombinant; line hGlyT1c_5_CHO is named for the uptake assay)
T1 sequence (P48067 1-706): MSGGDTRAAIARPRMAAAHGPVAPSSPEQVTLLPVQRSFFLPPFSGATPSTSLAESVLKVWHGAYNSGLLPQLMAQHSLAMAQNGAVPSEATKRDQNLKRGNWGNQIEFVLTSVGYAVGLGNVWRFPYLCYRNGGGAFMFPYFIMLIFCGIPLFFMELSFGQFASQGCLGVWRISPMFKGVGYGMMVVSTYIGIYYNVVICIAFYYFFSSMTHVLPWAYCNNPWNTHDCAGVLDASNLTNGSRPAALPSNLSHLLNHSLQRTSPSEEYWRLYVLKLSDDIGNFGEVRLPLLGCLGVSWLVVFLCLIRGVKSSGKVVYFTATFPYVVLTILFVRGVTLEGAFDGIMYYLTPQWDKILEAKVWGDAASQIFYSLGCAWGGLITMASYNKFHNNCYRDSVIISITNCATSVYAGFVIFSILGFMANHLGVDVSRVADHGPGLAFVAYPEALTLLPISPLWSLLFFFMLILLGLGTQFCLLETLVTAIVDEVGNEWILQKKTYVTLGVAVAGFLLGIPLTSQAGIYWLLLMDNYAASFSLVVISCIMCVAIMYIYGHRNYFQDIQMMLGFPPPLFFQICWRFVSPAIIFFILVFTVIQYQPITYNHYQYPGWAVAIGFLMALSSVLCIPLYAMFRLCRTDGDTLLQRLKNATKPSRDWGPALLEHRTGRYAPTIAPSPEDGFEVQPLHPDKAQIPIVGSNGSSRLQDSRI
Assay: Radioligand binding assay using recombinant CHO cell membranes expressing human GlyT1
Settings: radioligand binding to human GlyT1c transporter-expressing membranes
Source text: 2. Radioligand binding assays using recombinant CHO cell membranes expressing human GlyT1: […]

Structure (SMILES)	Ki
Cn1cnc(S(=O)(=O)N2C[C@@H](Nc3cccc(Cl)c3)[C@H](Oc3ccc(F)cc3)C2)c1 (relative stereo) [Example 378, Trans-N-(3-chlorophenyl)-4-(4-fluorophenoxy)-1-[(1-methyl-1H-imidazol-4-yl)sulfonyl]pyrrolidin-3-amine]	≤ 10000 nM
Cn1cnc(S(=O)(=O)N2C[C@H](NCc3cnn4ccccc34)[C@@H](c3ccccc3)C2)c1 [Example 537, (3R,4S)-1-[(1-methyl-1H-imidazol-4-yl)sulfonyl]-4-phenyl-N-(pyrazolo[1,5-a]pyridin-3-ylmethyl)pyrrolidin-3-amine]	≤ 10000 nM
Cn1cnc(S(=O)(=O)N2C[C@@H](Nc3nccc(C(F)(F)F)n3)[C@H](c3ccccc3)C2)c1 (relative stereo) [Example 227, N-{trans-1-[(1-methyl-1H-imidazol-4-yl)sulfonyl]-4-phenylpyrrolidin-3-yl}-4-(trifluoromethyl)pyrimidin-2-amine]	≤ 10000 nM
Cc1ccc(N[C@@H]2CN(S(=O)(=O)c3cn(C)cn3)C[C@H]2c2ccc(F)cc2)cc1 (relative stereo) [Example 86, trans-4-(4-fluorophenyl)-1-[(1-methyl-1H-imidazol-4-yl)sulfonyl]-N-(4-methylphenyl)pyrrolidin-3-amine]	≤ 1000 nM
COc1nc(N[C@H]2CN(S(=O)(=O)c3cn(C)cn3)C[C@@H]2c2ccccc2)cc(C(F)(F)F)n1 [Example 605, 2-methoxy-N-{(3R,4S)-1-[(1-methyl-1H-imidazol-4-yl)sulfonyl]-4-phenylpyrrolidin-3-yl} -6-(trifluoromethyl)pyrimidin-4-amine]	≤ 1000 nM
CC(C)COc1cc(N[C@H]2CN(S(=O)(=O)c3cn(C)cn3)C[C@@H]2c2ccccc2)ncn1 [Example 624, N-{(3R,4S)-1-[(1-methyl-1H-imidazol-4-yl)sulfonyl]-4-phenylpyrrolidin-3-yl}-6-(2-methylpropoxy)pyrimidin-4-amine]	≤ 1000 nM
CCCCOC(=O)O[C@@H]1CN(S(=O)(=O)c2cn(C)cn2)C[C@H]1c1ccc(F)cc1 [Example 697, butyl (3S,4R)-4-(4-fluorophenyl)-1-[(1-methyl-1H-imidazol-4-yl)sulfonyl]pyrrolidin-3-yl carbonate]	≤ 1000 nM
Cn1cnc(S(=O)(=O)N2C[C@@H](Nc3ccccc3)[C@H](c3ccccc3)C2)c1 (relative stereo) [Example 29, trans-1-[(1-methyl-1H-imidazol-4-yl)sulfonyl]-N,4-diphenylpyrrolidin-3-amine]	≤ 1000 nM
Cn1cnc(S(=O)(=O)N2C[C@H](NCc3scnc3-c3ccccc3)[C@@H](c3ccccc3)C2)c1 [Example 430, (3R,4S)-1-[(1-methyl-1H-imidazol-4-yl)sulfonyl]-4-phenyl-N-[(4-phenyl-1,3-thiazol-5-yl)methyl]pyrrolidin-3-amine]	> 10000 nM
Cn1cnc(S(=O)(=O)N2C[C@H](Nc3cc(OCc4ccccc4)ncn3)[C@@H](c3ccc(F)cc3)C2)c1 [Example 774, 6-(benzyloxy)-N-{(3R,4S)-4-(4-fluorophenyl)-1-[(1-methyl-1H-imidazol-4-yl)sulfonyl]pyrrolidin-3-yl}pyrimidin-4-amine]	≤ 100 nM
Cn1cnc(S(=O)(=O)N2C[C@H](Nc3cnc(N4CCCC4)cn3)[C@@H](c3ccccc3)C2)c1 [Example 413, N-{(3R,4S)-1-[(1-methyl-1H-imidazol-4-yl)sulfonyl]-4-phenylpyrrolidin-3-yl}-5-(pyrrolidin-1-yl)pyrazin-2-amine]	≤ 10000 nM
Cc1nn(C(F)F)c(C)c1S(=O)(=O)N1C[C@@H](NC(=O)c2cccc(C(F)(F)F)c2Cl)[C@H](c2ccccc2)C1 (relative stereo) [Example 39, 2-chloro-N-[trans-1-{[1-(difluoromethyl)-3,5-dimethyl-1H-pyrazol-4-yl]sulfonyl}-4-phenylpyrrolidin-3-yl]-3-(trifluoromethyl)benzamide]	≤ 10000 nM
Cn1cnc(S(=O)(=O)N2C[C@H](NCC3(C(F)(F)F)CC3)[C@@H](c3ccc(F)cc3)C2)c1 [Example 386, (3R,4S)-4-(4-fluorophenyl)-1-[(1-methyl-1H-imidazol-4-yl)sulfonyl]-N-{[-(trifluoromethyl)cyclopropyl]methyl}pyrrolidin-3-amine]	≤ 1000 nM

Results, then the compound that gave them:

Ki	Structure (SMILES)
> 10000 nM	Cn1cnc(S(=O)(=O)N2C[C@@H](OCc3ccc(S(C)(=O)=O)cc3)[C@H](c3ccc(F)cc3)C2)c1 (relative stereo) [Example 713, 4-{[trans-3-(4-fluorophenyl)-4-{[4-(methylsulfonyl)benzyl]oxy}pyrrolidin-1-yl]sulfonyl}-1-methyl-1H-imidazole]
≤ 100 nM	Cn1cnc(S(=O)(=O)N2C[C@H](Nc3cccc(OCc4ccccc4)c3)[C@@H](c3ccccc3)C2)c1 [Example 773, (3R,4S)-N-[3-(benzyloxy)phenyl]-1-[(1-methyl-1H-imidazol-4-yl)sulfonyl]-4-phenylpyrrolidin-3-amine]
≤ 1000 nM	CCOCCCN[C@H]1CN(S(=O)(=O)c2cn(C)cn2)C[C@@H]1c1ccccc1 [Example 589, (3R,4S)-N-(3-ethoxypropyl)-1-[(1-methyl-1H-imidazol-4-yl)sulfonyl]-4-phenylpyrrolidin-3-amine]
≤ 10 nM	Cn1cnc(S(=O)(=O)N2C[C@H](Nc3cc(OCc4ccccc4)c(F)cn3)[C@@H](c3ccccc3)C2)c1 [Example 776, 4-(benzyloxy)-5-fluoro-N-{(3R,4S)-1-[(1-methyl-1H-imidazol-4-yl)sulfonyl]-4-phenylpyrrolidin-3-yl}pyridin-2-amine]
≤ 10000 nM	CCCCCC(=O)N[C@H]1CN(S(=O)(=O)c2cn(C)cn2)C[C@@H]1c1ccccc1 [Example 550, N-{(3R,4S)-1-[(1-methyl-1H-imidazol-4-yl)sulfonyl]-4-phenylpyrrolidin-3-yl}hexanamide]
≤ 10 nM	Cn1cnc(S(=O)(=O)N2C[C@@H](NCc3ccc(C(F)(F)F)cc3)[C@H](c3ccc(F)cc3)C2)c1 (relative stereo) [Example 267, trans-4-(4-fluorophenyl)-1-[(1-methyl-1H-imidazol-4-yl)sulfonyl]-N-[4-(trifluoromethyl)benzyl]pyrrolidin-3-amine]
≤ 1000 nM	Cn1cnc(S(=O)(=O)N2C[C@@H](Nc3cccc(F)c3)[C@H](c3ccccc3)C2)c1 (relative stereo) [Example 70, trans-N-(3-fluorophenyl)-1-[(1-methyl-1H-imidazol-4-yl)sulfonyl]-4-phenylpyrrolidin-3-amine]
≤ 10000 nM	CCCOC(=O)N[C@H]1CN(S(=O)(=O)c2cn(C)cn2)C[C@@H]1c1ccccc1 [Example 542, propyl {(3R,4S)-1-[(1-methyl-1H-imidazol-4-yl)sulfonyl]-4-phenylpyrrolidin-3-yl}carbamate]
≤ 10000 nM	Cn1cnc(S(=O)(=O)N2C[C@H](c3ccccc3)[C@H](NCc3ccccc3)C2)c1 (relative stereo) [Example 157, (cis)-N-benzyl-1-[(1-methyl-1H-imidazol-4-yl)sulfonyl]-4-phenylpyrrolidin-3-amine]
≤ 1000 nM	Cn1cnc(S(=O)(=O)N2C[C@@H](Nc3cccc(F)c3F)[C@H](c3ccccc3)C2)c1 (relative stereo) [Example 231, trans-N-(2,3-difluorophenyl)-1-[(1-methyl-1H-imidazol-4-yl)sulfonyl]-4-phenylpyrrolidin-3-amine]
≤ 1000 nM	Cn1cnc(S(=O)(=O)N2C[C@H](NC(=O)Nc3ccc(Cl)cc3)[C@@H](c3ccc(F)cc3)C2)c1 [Example 701, 1-(4-chlorophenyl)-3-{(3R,4S)-4-(4-fluorophenyl)-1-[(1-methyl-1H-imidazol-4-yl)sulfonyl]pyrrolidin-3-yl}urea]
≤ 1000 nM	Cn1cnc(S(=O)(=O)N2C[C@H](NCc3sccc3Cl)[C@@H](c3ccccc3)C2)c1 [Example 553, (3R,4S)-N-[(3-chlorothiophen-2-yl)methyl]-1-[(1-methyl-1H-imidazol-4-yl)sulfonyl]-4-phenylpyrrolidin-3-amine]
≤ 1000 nM	Cn1cnc(S(=O)(=O)N2C[C@H](Nc3ccc4c(c3)CCO4)[C@@H](c3ccccc3)C2)c1 [Example 671, (3R,4S)-N-(2,3-dihydro-1-benzofuran-5-yl)-1-[(1-methyl-1H-imidazol-4-yl)sulfonyl]-4-phenylpyrrolidin-3-amine]
≤ 100 nM	Cn1cnc(S(=O)(=O)N2C[C@@H](Nc3cc(F)cc(C(F)(F)F)c3)[C@H](c3ccccc3)C2)c1 (relative stereo) [Example 223, trans-N-[3-fluoro-5-(trifluoromethyl)phenyl]-1-[(1-methyl-1H-imidazol-4-yl)sulfonyl]-4-phenylpyrrolidin-3-amine]

Same assay, conditions: radioligand binding, recombinant CHO cell membranes expressing human GlyT1c

Structure (SMILES)	Ki
CC(C)c1ccnc(N[C@H]2CN(S(=O)(=O)c3cn(C)cn3)C[C@@H]2c2ccccc2)c1 [Example 813, N-{(3R,4S)-1-[(1-methyl-1H-imidazol-4-yl)sulfonyl]-4-phenylpyrrolidin-3-yl}-4-(propan-2-yl)pyridin-2-amine]	≤ 100 nM
